# Key:
# PI3Kγ (p120γ) = molecular target: T1, PI3Kγ (p120γ) (Homo sapiens, UniProt P48736); assay: HTRF assay, potency against active PI3Kγ; assay type: biochemical; conditions: [ATP]=50 μM, [di-C8-PIP2]=10 μM, 30 min pre-incubation, read-out: PI3Kγ Inhibition
# T1 construct: purchased BPS Bioscience (San Diego, Calif.) or Millipore (Billerica, Mass.)
# Source text: Homogeneous Time Resolved Fluorescence (HTRF) Assay Protocol for Potency Assessment Against the Active Forms of PI3Kα, PI3Kβ, and PI3Kγ
# The protocol below describes an end-point, competition-binding HTRF assay used to measure inherent potency of test compounds against active PI3Kα (p110α/p85α), PI3Kβ (p110β/p85α), and PI3Kγ (p120γ) enzymes. The mechanics of the assay platform are best described by the vendor (Millipore, Billerica, Mass.) on their website at the following URL: www.millipore.com/coa/tech1/74jt4z.
# Briefly, Stop solution (Stop A, #33-007 and Stop B, #33-009; 3:1 ratio) and Detection Mix (from DMC, #33-015 with DMA, #33-011 and DMB, #33-013; 18:1:1 ratio) were prepared as recommended by the manufacturer about 2 hrs prior to use. Additionally, 1× reaction buffer (from 4× buffer stock# 33-003), 1.4× stocks of PI3Kα, PI3Kβ, and PI3Kγ enzymes from BPS Bioscience (San Diego, Calif.) or Millipore (Billerica, Mass.) with di-C8-PIP2 lipid substrate (#33-005), and a 4×ATP solution (#A7699 Sigma/Aldrich; St. Louis, Mo.) were prepared in 1× reaction buffer. 15 μL of PI3K enzymes and lipid substrate mix were pre-incubated in a Corning (#3573) 384-well, black, non-treated microtiter plate (Corning, N.Y.) for 30 min at 25° C. with a 0.5 μL volume of 50% DMSO and serially diluted compounds prepared in 50% DMSO. Lipid kinase reactions were started with the addition of 5 μL of ATP solution, mixed for 15 sec on a rotary plate shaker and incubated for 30-60 minutes at 25° C. Next, reactions were stopped with a 5 μL addition of Stop solution immediately followed by a 5 μL volume of Detection Mix. Stopped reactions were equilibrated for 1 and 18 hrs at room temperature and read in a Synergy^4 plate reader from BioTek (Winooski, Vt.) at λex330-80/λem620-35 and λem665-7.5. At the conclusion of each assay, the HTRF ratio from fluorescence emission values for each well was calculated and % Inhibition determined from averaged controls wells (+/−PI3K enzyme). % Inhibition values for each compound were then plotted against inhibitor concentration to estimate IC50 from log [Inhibitor] vs Response, Variable Slope model in GraphPad Prism from GraphPad Software (San Diego, Calif.).
# [Reagent] used in optimized protocol: • [p110α/p85α]=0.5-1.5 nM, [ATP]=50 μM, [di-C8—PIP2]=10 μM • [p110β/p85α]=0.75 nM, [ATP]=50 μM, [di-C8—PIP2]=10 μM • [p120γ]=2-2.5 nM, [ATP]=50 μM, [di-C8—PIP2]=10 μM • (ATP KMapp for both enzymes was estimated to be 40-70 μM)
# PI3Kα (p110α/p85α) = molecular target: T2, PI3Kα (p110α/p85α) (Homo sapiens, UniProt P42336); assay: HTRF assay, potency against active PI3Kα; assay type: biochemical; conditions: HTRF; [ATP]=50 μM, [di-C8-PIP2]=10 μM; 30 min pre-incubation; read-out: PI3Kα Inhibition
# T2 construct: purchased BPS Bioscience (San Diego, Calif.) or Millipore (Billerica, Mass.)
# T2 sequence (P42336 whole entry): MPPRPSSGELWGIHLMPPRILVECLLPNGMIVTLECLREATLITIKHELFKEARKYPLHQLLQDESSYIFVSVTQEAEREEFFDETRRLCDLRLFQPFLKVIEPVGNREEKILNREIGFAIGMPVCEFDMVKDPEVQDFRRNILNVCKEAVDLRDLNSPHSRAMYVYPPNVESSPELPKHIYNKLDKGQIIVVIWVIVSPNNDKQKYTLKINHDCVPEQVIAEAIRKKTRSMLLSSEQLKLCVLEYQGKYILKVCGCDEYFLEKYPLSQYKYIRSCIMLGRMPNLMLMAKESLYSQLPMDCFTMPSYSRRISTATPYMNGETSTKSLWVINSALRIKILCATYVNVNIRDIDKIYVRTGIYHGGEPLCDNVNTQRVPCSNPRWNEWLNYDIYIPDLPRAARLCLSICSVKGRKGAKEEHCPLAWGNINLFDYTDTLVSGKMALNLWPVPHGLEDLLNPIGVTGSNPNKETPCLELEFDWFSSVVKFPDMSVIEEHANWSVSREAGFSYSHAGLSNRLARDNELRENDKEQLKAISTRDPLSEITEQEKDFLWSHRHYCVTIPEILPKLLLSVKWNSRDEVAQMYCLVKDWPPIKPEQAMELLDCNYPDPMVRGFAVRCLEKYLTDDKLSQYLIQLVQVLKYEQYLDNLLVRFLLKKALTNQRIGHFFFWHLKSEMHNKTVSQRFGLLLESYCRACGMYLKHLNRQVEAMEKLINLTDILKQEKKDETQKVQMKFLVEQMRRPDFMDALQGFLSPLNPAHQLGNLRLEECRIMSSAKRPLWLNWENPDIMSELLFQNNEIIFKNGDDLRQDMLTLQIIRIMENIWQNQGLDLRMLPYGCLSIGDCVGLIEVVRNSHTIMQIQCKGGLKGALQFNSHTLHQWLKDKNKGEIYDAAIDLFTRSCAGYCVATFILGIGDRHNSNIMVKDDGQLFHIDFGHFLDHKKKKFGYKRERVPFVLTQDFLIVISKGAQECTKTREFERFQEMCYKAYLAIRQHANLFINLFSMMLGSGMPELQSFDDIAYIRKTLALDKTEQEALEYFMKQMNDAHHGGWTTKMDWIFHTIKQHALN
# T2 sequence (P27986 whole entry partner): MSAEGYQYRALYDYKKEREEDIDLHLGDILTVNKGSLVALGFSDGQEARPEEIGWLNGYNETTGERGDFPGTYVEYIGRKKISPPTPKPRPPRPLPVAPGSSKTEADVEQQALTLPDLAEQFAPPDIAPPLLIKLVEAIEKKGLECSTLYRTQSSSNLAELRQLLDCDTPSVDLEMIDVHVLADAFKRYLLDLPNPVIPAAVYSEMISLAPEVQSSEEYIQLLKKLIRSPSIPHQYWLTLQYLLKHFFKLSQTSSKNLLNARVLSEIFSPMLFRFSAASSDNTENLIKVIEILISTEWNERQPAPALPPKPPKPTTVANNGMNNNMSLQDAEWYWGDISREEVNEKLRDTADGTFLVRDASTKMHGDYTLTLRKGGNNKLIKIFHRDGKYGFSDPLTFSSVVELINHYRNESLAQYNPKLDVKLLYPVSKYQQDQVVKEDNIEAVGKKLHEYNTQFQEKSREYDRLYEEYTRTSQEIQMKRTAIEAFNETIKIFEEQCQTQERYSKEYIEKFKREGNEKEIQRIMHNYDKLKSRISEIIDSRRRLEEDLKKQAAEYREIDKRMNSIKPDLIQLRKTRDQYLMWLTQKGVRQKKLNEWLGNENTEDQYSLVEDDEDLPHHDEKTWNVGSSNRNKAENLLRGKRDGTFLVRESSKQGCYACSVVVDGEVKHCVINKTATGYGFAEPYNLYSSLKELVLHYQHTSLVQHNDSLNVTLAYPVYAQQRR
# Procedure, shortened: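 IC50 came from a variable-slope fit of % inhibition, calculated from the HTRF emission ratio relative to wells with and without enzyme. Reactions with the active enzyme complex ran 30-60 minutes at 25 °C after ATP addition before stop and detection reagents.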
# PI3K = PI3K HCT116 cellular assay (Western blot); assay type: cell-based; conditions: Homo sapiens, HCT-116, HCT116 colon cancer cells, 1 hour incubation, read-out: PI3K Inhibition
# Method: PI3K HCT116 Cellular Assay
# Selected compounds were assayed in HCT116 colon cancer cells. […] Cells were then washed with PBS, lysed and the protein lysates were then recovered and analyzed by Western blot.
# Phospho-Akt(Ser473) [1] = assay: Dose response in SKOV3 cells as determined by Western blot; assay type: cell-based; conditions: Homo sapiens, SK-OV-3, 1 hr, Phospho-Akt normalized to total Akt, read-out: Immunoblot
# Method: Dose Response in SKOV3 Cells as Determined by Western Blot
# SKOV3 cells were plated in SKOV3 Growth Media (DMEM supplemented with 10% FBS and pen/strep) at a density of 4×10^5 cells per well of 12 well plates. Twenty four hours later the media was removed and replaced with 1 ml media containing test compound and 0.1% DMSO and cells were returned to the incubator for 1 hr. At the end of the hour, the media was removed and the cells were washed with PBS, then lysed and scraped into 30 ul of Cell Extraction Buffer (Biosource, Camarillo, Calif.) plus Complete Protease Inhibitor and PhosStop Phosphatase Inhibitor (Roche, Indianapolis, Ind.).
# Cell debris was spun down at 13,000×g for 1 minute and the supernatant was taken as the cell lysate. Protein concentration of the lysate was determined by BCA Assay (Pierce Biotechnology, Rockford, Ill.) and 50 ug of protein was loaded per well onto a NuPAGE Novex 4-12% Bis-Tris gel (Invitrogen, Carlsbad, Calif.) then transferred to Immobilon PVDF-FL (Millipore, Billerica, Mass.).
# The blot was blocked in Odyssey Blocking Buffer (Li-Cor Biosciences, Lincoln, Nebr.) for 1 hr then incubated overnight at 4° C. with mouse anti-Akt (#2920) and rabbit anti-Phospho-Akt(Ser473) (#9271)(Cell Signaling Technology, Boston, Mass.) antibodies, both diluted 1:1000 in PBS/Odyssey Buffer (1:1)+0.1% Tween-20. The blots were washed 3 times 5 minutes in PBS+0.2% Tween-20 then incubated for 1 hr at room temperature with fluorescently labeled secondary antibodies (Li-Cor) diluted 1:10000 in PBS/Odyssey Buffer (1:1)+0.1% Tween-20.
# The blots were washed 2 times for 5 minutes in PBS+0.2% Tween-20, once in distilled water, then scanned on an Odyssey machine (Li-Cor). Band intensity was determined using the Odyssey software and Phopho-Akt signal was normalized to total Akt within samples, then expressed as a percentage of the untreated Phospho-Akt signal.
# Phospho-Akt(Ser473) [2] = assay: Dose response in SKOV3 cells as determined by in-cell Western; assay type: cell-based; conditions: Homo sapiens, SK-OV-3; SKOV3 cells, 1 hr; read-out: pAKT Inhibition in cell Western
# Procedure, shortened: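 SKOV3 cells treated with compound for 1 hr, then formaldehyde-fixed, permeabilised and stained overnight for phospho-Akt(Ser473) with anti-tubulin as a reference. Infrared secondary antibodies read at 680 and 800 nm channels by in-cell Western imaging.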
# T1 sequence (P48736 whole entry): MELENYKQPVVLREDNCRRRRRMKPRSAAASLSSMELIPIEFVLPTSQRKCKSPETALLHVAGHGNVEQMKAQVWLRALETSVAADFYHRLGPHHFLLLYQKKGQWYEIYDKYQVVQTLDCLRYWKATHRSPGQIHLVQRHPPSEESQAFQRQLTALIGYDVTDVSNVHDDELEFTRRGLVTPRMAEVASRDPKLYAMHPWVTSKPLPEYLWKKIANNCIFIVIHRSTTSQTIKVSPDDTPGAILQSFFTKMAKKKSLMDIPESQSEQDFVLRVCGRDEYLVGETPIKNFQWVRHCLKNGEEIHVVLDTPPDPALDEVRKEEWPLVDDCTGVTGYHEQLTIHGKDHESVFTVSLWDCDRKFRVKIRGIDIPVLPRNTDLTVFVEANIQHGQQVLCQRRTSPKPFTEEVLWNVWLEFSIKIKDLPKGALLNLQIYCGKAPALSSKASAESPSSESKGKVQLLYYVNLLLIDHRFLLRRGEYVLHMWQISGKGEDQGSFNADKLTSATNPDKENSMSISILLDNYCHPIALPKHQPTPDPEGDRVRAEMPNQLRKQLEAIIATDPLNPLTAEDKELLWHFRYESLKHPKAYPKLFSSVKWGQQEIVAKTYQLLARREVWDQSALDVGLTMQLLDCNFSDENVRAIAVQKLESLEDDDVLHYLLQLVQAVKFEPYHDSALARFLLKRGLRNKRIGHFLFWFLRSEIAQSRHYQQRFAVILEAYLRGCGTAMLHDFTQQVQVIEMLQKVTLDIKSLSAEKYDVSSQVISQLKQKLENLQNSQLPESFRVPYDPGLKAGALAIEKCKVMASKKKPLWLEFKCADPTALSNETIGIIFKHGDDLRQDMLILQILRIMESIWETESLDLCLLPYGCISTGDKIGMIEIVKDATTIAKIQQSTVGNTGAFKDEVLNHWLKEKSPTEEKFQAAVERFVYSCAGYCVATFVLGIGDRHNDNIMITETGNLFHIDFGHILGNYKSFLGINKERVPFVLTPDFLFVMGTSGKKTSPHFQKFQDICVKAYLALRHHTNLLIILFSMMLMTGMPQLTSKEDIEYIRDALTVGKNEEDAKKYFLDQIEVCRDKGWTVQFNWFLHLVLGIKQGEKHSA
Structure (SMILES),IC50 (PI3Kγ (p120γ)) [nM],IC50 (PI3Kα (p110α/p85α)) [nM],EC50 (PI3K) [nM],EC50 (Phospho-Akt(Ser473) [1]) [nM],EC50 (Phospho-Akt(Ser473) [2]) [nM]
"C/C=C/C(=O)CCC(=O)NCCS(=O)(=O)N1CCN(Cc2cc3nc(-c4cccc(O)c4)nc(N4CCOCC4)c3s2)CC1 [II-a-26, (E)-N-(2-(4-((2-(3-hydroxyphenyl)-4-morpholinothieno[3,2-d]pyrimidin-6-yl)methyl)piperazin-1-ylsulfonyl)ethyl)-4-oxohept-5-enamide]",100 to 1000,10 to 100,20 to 100,,
"CC(C)=CC(=O)CCC(=O)NCCS(=O)(=O)N1CCN(Cc2cc3nc(-c4cccc(O)c4)nc(N4CCOCC4)c3s2)CC1 [II-a-28, N-(2-(4-((2-(3-hydroxyphenyl)-4-morpholinothieno[3,2-d]pyrimidin-6-yl)methyl)piperazin-1-ylsulfonyl)ethyl)-6-methyl-4-oxohept-5-enamide]",100 to 1000,100 to 1000,20 to 100,,
"C=CS(=O)(=O)N(C)Cc1cc2nc(-c3cccc(O)c3)nc(N3CCOCC3)c2s1 [II-a-29, N-((2-(3-hydroxyphenyl)-4-morpholinothieno[3,2-d]pyrimidin-6-yl)methyl)-N-methylethenesulfonamide]",100 to 1000,10 to 100,100 to 500,,
"C=CC(=O)N1CCN(CC#Cc2cc3nc(-c4cccc(O)c4)nc(N4CCOCC4)c3s2)CC1 [II-a-47, 1-(4-(3-(2-(3-hydroxyphenyl)-4-morpholinothieno[3,2-d]pyrimidin-6-yl)prop-2-ynyl)piperazin-1-yl)prop-2-en-1-one]",> 1000,10 to 100,100 to 500,,
"C/C=C/C(=O)CCC(=O)N1CCN(CC#Cc2cc3nc(-c4cccc(O)c4)nc(N4CCOCC4)c3s2)CC1 [II-a-48, (E)-1-(4-(3-(2-(3-hydroxyphenyl)-4-morpholinothieno[3,2-d]pyrimidin-6-yl)prop-2-ynyl)piperazin-1-yl) hept-5-ene-1,4-dione]",> 1000,< 10,20 to 100,,
"C=CC(=O)NCc1cccc(-c2cc3nc(-c4cccc(O)c4)nc(N4CCOCC4)c3s2)c1 [II-a-64, N-(3-(2-(3-hydroxyphenyl)-4-morpholinothieno[3,2-d]pyrimidin-6-yl)benzyl)acrylamide]",,< 10,,10 to 100,
"C/C=C/C(=O)CCC(=O)N1CCC(C#Cc2cc3nc(-c4cccc(O)c4)nc(N4CCOCC4)c3s2)CC1 [II-a-89, (E)-1-(4-((2-(3-hydroxyphenyl)-4-morpholinothieno[3,2-d]pyrimidin-6-yl)ethynyl)piperidin-1-yl)hept-5-ene-1,4-dione]",,< 10,,10 to 100,
"O=C(/C=C/c1ccccc1)CCC(=O)N1CCN(C(=O)c2cc3nc(-c4cccc5[nH]ncc45)nc(N4CCOCC4)c3s2)CC1 [II-a-142, (E)-1-(4-(2-(1H-indazol-4-yl)-4-morpholinothieno[3,2-d]pyrimidine-6-carbonyl)piperazin-1-yl)-6-phenylhex-5-ene-1,4-dione]",,< 10,,10 to 100,10 to 100
"C=CC(=O)Nc1ccc(CCNC(=O)c2cc3nc(-c4cnc(N)nc4)nc(N4CCOCC4)c3s2)cc1 [II-a-154, N-(4-acrylamidophenethyl)-2-(2-aminopyrimidin-5-yl)-4-morpholinothieno[3,2-d]pyrimidine-6-carboxamide]",,10 to 100,,≤ 10,
"C=CC(=O)Nc1ccc(C(=O)N2CC=C(c3cc4nc(-c5cnc(N)nc5)nc(N5CCOCC5)c4s3)CC2)cc1 [II-a-156, N-(4-(4-(2-(2-aminopyrimidin-5-yl)-4-morpholinothieno[3,2-d]pyrimidin-6-yl)-1,2,3,6-tetrahydropyridine-1-carbonyl)phenyl)acrylamide]",,10 to 100,,≤ 10,
"C=CC(=O)Nc1ccc(OCc2cc3nc(-c4cnc(N)nc4)nc(N4CCOCC4)c3s2)cc1 [II-a-172, N-(4-((2-(2-aminopyrimidin-5-yl)-4-morpholinothieno[3,2-d]pyrimidin-6-yl)methoxy)phenyl)acrylamide]",,100 to 1000,,≤ 10,
"C=CC(=O)Nc1ccc(COCc2cc3nc(-c4cnc(N)nc4)nc(N4CCOCC4)c3s2)cc1 [II-a-173, N-(4-(((2-(2-aminopyrimidin-5-yl)-4-morpholinothieno[3,2-d]pyrimidin-6-yl)methoxy)methyl)phenyl)acrylamide]",,100 to 1000,,≤ 10,10 to 100
"C=CC(=O)Nc1ccc(CN(C)Cc2cc3nc(-c4cnc(N)nc4)nc(N4CCOCC4)c3s2)cc1 [II-a-176, N-(4-((((2-(2-aminopyrimidin-5-yl)-4-morpholinothieno[3,2-d]pyrimidin-6-yl)methyl)(methyl)amino)methyl)phenyl)acrylamide]",,10 to 100,,10 to 100,
"CC(C)=CC(=O)CCCC(=O)N1CCC(c2cc3nc(-c4cnc(N)nc4)cc(N4CCOCC4)c3s2)CC1 [II-g-6, 1-(4-(5-(2-aminopyrimidin-5-yl)-7-morpholinothieno[3,2-b]pyridin-2-yl)piperidin-1-yl)-7-methyloct-6-ene-1,5-dione]",,100 to 1000,,100 to 1000,
"C=C(C)C(=O)CCCC(=O)N1CCN(c2ccnc3ccc(/C=C4\SC(Nc5c(Cl)cccc5Cl)=NC4=O)cc23)CC1 [V-3, (Z)-1-(4-(6-((2-(2,6-dichlorophenylamino)-4-oxothiazol-5(4H)-ylidene)methyl)quinolin-4-yl)piperazin-1-yl)-6-methylhept-6-ene-1,5-dione]",> 1000,100 to 1000,500 to 2000,,
"C=CC(=O)Nc1ccc(CCNC(=O)c2cc(-c3cnc(N)nc3)nc(N3CCOCC3)c2)cc1 [XII-2, N-(4-acrylamidophenethyl)-2-(2-aminopyrimidin-5-yl)-6-morpholinoisonicotinamide]",,10 to 100,,≥ 1000,

# — patent US20110230476A1, “PI3 KINASE INHIBITORS AND USES THEREOF” (AVILA THERAPEUTICS, INC., priority 2009, published 2011)
